Test results as given in article PMC5979327 (International Journal of Molecular Sciences, 2018).
Each block holds one compound with its values, some of them ahead of it.

Columns and labels:
[1] = molecular target: T1, rat histamine H3 receptor (rH3R) (Rattus norvegicus, UniProt Q9QYN8); experiment: [3H]-Nα-methylhistamine binding (saturation and displacement) to rat H3R in HEK-293T cell membranes
T1 construct: expressed in transfected cells; host or cells: HEK293T, transient PEI transfection with pcDNA3-rH3R; crude membranes

rats = experiment: Feeding behavior of rats after repeated subcutaneous administration; format: in vivo, rat; settings: 3 mg/kg s.c. for 5 days; for amount of consumed food (food intake): versus pre-treatment period
Source text: Finally, compound ADS-003 (1a) was subjected to an in vivo evaluation of its impact on brain neurotransmitter systems. This assessment concerned: • - The effects of the compound on the feeding behavior of rats after its repeated peripheral administration. […] The latter was accomplished by postmortem analyses of the brain tissues of the treated rats.
All animal experimental procedures were in accordance with EU directives and local ethical regulations. Male Wistar rats (260–300 g) were used. The animals were maintained under standard laboratory conditions (liquid and food available ad libitum, 12 h light–dark cycle). For feeding behavior examination, the rats were placed individually in metabolic cages (TecniplastGazzada, Buguggiate, Italy) and kept there throughout the entire test. Pharmacotherapy was preceded by a control period of 4 days aimed to determine the basal feed and water consumptions as well as urine excretion. The rats (n = 8 per group) were randomly given the H3R antagonists ADS-003 or Ciproxifan, the latter serving as a reference compound [40]. Control rats were treated with an equivalent volume of physiological saline. The compounds, dissolved in distilled water with DMSO (7%, v/v), were administered subcutaneously at a dose of 3 mg/kg of body mass for 5 consecutive days, always during the morning hours, following the record of feeding parameters. The dose of ADS-003 had been determined on the basis of a thorough characterization in vitro. The recorded volumes of consumed food are expressed in g or ml per 100 g of body weight or in ml per 24 h, respectively. The final results are given as means, with SEM calculated for each 24 h period, computed from a four-day (before treatment) or a five-day (treatment) monitoring

[2] = tested on: cerebral amine neurotransmitter concentrations; experiment: Post-mortem brain tissue concentration of histamine, noradrenaline, dopamine and serotonin; format: in vivo, rat; settings: rats, 3 mg/kg s.c. for 5 days; for histamine concentration in the hypothalamus: not statistically significant
Description: (§1) Following the behavioral study, the rats were sacrificed, and their brains were collected. From each brain, the cerebral cortex and hypothalamus were quickly dissected according to the Glowinski and Iversen method. The samples were immediately frozen in liquid nitrogen and kept at −70 °C until assayed.
The amine concentrations were expressed as ng/g wet weight (HA) or nmol/g wet weight (DA, NA, 5-HT).

[3] = molecular target: T2, guinea pig H3 receptor (jejunum) (Cavia porcellus, UniProt Q9JI35); experiment: H3 antagonistic activity against H3 agonist-induced inhibition of the electrically evoked contraction of the guinea pig jejunum; format: biochemical; settings: vs (R)-α-methylhistamine, Schild plot, dihydrogenoxolate salts, read-out: pA2 (sem) (converted)
T2 construct: Whole jejunum segments (2 cm) were prepared and mounted between two platinum electrodes; from tissue; host or cells: guinea pig jejunum (small intestine)
Description: All newly synthesized compounds were converted into their dihydrogenoxolates salts and in vitro evaluated as H3 receptor antagonists against H3 agonist-induced inhibition of the electrically evoked contraction of the guinea pig jejunum.
In the first step, all the obtained compounds were tested for their H3 antagonistic effects in vitro, following standard methods, using the electrically contracting guinea pig jejunum.
Male guinea pigs weighing 300–400 g were sacrificed, and a portion of the small intestine, 20–50 cm proximal to the ileocaecal valve (jejunum), was removed and placed in Krebs buffer (composition (mM) NaCl 118; KCl 5.6; MgSO4 1.18; CaCl2 2.5; NaH2PO4 1.28; NaHCO3 25; glucose 5.5; indomethacin (1 × 10^ℒ6mol/L)). Whole jejunum segments (2 cm) were prepared and mounted between two platinum electrodes (4 mm apart) in 20 mL Krebs buffer, continuously gassed with 95% O2:5% CO2, and maintained at 37 °C. the contractions were recorded isotonically under 1.0 g tension with a Hugo Sachs Hebel–Messvorsatz (Tl-2)/HF-modem (Hugo Sachs Elektronik, Hugstetten, Germany) connected to a pen recorder. The equilibration lasted for one hour with washings every 10 min. The muscle segments were then stimulated at a maximum between 15 and 20 Volts, continuously at a frequency of 0.1 Hz for a duration of 0.5 msec, with rectangular wave electrical pulses, delivered by a Grass Stimulator S-88 (Grass Instruments Co., Quincy, MA, USA). […] The antagonists were preincubated for 20 min during the stimulation, before the preparation were challenged with (R)-α-methylhistamine. Antagonist potency was determined by the construction of a Schild plot, using three different concentrations of the antagonist. The potency of an antagonist is expressed by its pA2 value. The pA2 values were compared with those indicating the potency of thioperamide.

MAO-B = experiment: Post-mortem cerebral MAO-B activity of treated rats (radioassay); format: in vivo, rat; settings: cerebral cortex, s.c. 3 mg/kg/daily for 5 days, means ± SEM
Description: as §1
(§2) Monoamine oxidase A and B (EC 1.4.3.4; MAO A and B) activities were estimated in cerebral homogenates with radioassays, using serotonin (fine conc. 200 μM) and β-phenylethylamine (fine conc. 20 μM), as well as specific inhibitors—clorgyline and deprenyl (0.3 μM each), respectively.
(§3) The enzyme activities are expressed as pmol/min/mg protein. Protein concentration was analyzed according to Lowry’s method.

MAO-A = experiment: Post-mortem cerebral MAO-A activity of treated rats (radioassay); format: in vivo, rat; settings: cerebral cortex, s.c. 3 mg/kg/daily for 5 days, means ± SEM
Description: as §1, §2, §3

[4] = molecular target: T3, human histamine H3 receptor (hH3R) (Homo sapiens, UniProt Q9Y5N1); experiment: biochemical; format: binding
T3 construct: expressed in transfected cells; host or cells: HEK293T, transient PEI transfection with pcDNA3.1-hH3R; crude membranes

[5] = tested on: histamine N-methyltransferase (HNMT); experiment: Post-mortem cerebral histamine N-methyltransferase activity of treated rats (radioenzymatic); format: in vivo, rat; settings: s.c. 3 mg/kg/daily for 5 days, means ± SEM; for HMNT activity, CTX: cerebral cortex; for HMNT activity, HTH: hypothalamus
H1-receptor = molecular target: T4, H1-receptor (Cavia porcellus, UniProt P31389); experiment: H1 antagonistic effects in vitro, guinea pig ileum, histamine as competing agonist; format: biochemical; settings: read-out: pA2 (H1 antagonistic activity) (converted)
T4 construct: from tissue; host or cells: guinea pig ileum

[6] = compared with Ciproxifan; cited from earlier work

T2 sequence (Q9JI35 whole entry): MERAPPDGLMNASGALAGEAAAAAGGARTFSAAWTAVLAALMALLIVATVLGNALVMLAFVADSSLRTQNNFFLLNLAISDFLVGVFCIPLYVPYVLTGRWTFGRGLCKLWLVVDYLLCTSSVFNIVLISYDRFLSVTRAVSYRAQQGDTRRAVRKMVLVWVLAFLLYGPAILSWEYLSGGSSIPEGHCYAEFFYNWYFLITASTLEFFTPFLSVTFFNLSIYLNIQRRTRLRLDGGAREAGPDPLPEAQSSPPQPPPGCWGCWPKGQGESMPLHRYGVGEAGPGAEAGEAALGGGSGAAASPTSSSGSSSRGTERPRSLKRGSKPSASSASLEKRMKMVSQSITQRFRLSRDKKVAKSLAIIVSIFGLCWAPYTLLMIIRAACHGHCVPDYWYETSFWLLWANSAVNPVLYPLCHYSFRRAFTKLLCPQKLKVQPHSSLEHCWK
T4 sequence (P31389 whole entry): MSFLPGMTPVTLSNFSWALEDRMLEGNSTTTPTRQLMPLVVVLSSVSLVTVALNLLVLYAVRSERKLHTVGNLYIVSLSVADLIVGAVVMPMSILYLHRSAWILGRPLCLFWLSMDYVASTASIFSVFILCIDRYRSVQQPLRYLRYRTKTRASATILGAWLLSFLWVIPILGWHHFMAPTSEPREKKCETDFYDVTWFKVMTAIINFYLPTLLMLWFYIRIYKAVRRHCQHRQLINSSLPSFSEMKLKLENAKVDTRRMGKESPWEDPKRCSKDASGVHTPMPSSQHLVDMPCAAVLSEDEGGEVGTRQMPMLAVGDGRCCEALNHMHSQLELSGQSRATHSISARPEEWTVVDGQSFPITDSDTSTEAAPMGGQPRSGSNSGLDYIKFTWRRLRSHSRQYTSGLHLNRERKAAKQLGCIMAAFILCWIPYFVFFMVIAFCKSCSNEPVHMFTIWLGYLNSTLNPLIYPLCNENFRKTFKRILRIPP
T1 sequence (Q9QYN8 whole entry): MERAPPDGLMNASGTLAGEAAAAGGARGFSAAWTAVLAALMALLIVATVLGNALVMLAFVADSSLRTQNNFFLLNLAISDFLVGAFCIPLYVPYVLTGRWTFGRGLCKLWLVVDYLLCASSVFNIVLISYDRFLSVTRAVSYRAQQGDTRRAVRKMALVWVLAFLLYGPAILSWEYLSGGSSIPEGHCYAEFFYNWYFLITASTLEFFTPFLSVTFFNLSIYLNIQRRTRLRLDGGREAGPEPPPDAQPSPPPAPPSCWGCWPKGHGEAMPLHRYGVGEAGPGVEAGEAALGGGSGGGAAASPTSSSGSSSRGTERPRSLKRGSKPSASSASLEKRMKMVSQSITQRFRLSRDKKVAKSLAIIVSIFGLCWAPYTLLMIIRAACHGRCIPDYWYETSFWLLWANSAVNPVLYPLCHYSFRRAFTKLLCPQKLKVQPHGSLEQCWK
T3 sequence (Q9Y5N1 whole entry): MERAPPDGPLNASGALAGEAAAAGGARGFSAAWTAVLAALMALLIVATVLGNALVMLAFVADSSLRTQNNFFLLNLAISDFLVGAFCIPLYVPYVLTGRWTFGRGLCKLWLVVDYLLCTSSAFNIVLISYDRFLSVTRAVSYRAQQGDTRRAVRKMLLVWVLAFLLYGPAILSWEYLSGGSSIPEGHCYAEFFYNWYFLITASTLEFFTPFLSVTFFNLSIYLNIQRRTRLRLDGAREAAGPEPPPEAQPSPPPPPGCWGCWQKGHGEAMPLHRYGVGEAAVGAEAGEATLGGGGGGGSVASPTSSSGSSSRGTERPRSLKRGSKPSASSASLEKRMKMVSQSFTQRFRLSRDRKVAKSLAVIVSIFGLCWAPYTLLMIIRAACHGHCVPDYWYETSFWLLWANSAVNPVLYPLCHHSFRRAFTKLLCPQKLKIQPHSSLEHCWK

Kb [3]: 479 nM
SMILES: CCCN(C)CCCCCOCCCN(C)CCc1cc2ccccc2o1 [2b, 5-{3-{[2-(Benzofuran-2-yl)ethyl](methyl)amino}propoxy}-N-methyl-N-propylpentan-1-amine]

Kb [3]: 427 nM
SMILES: CCCN(C)CCCCCOCCCN(C)CCCc1cc2ccccc2o1 [2c, 5-{3-{[3-(Benzofuran-2-yl)propyl](methyl)amino}propoxy}-N-methyl-N-propylpentan-1-amine]

Kb [3]: 191 nM
SMILES: CCCN(C)CCCCCOCCCN(C)CCc1ccccc1 [2e, N-Methyl-5-{3-[methyl(phenethyl)amino]propoxy}-N-propylpentan-1-amine]

Kb [3]: 162 nM
SMILES: CCCN(C)CCCCCOCCCN(C)CCCc1ccccc1 [2f, N-Methyl-5-(3-(methyl(3-phenylpropyl)amino)propoxy)-N-propylpentan-1-amine]

More lines, now with the values behind:

SMILES: CCCN(C)CCCCCOC1CCN(Cc2cc3ccccc3o2)CC1 [1a]
Ki [1]: 12.6 nM | crossing of the blood–brain barrier (suggested by the food intake results) (rats): crosses the BBB | amount of consumed food (food intake) (rats): statistically significant reduction | histamine levels in the cerebral cortex [2]: no changes | noradrenaline levels in the cerebral cortex [2]: enhanced | histamine concentration in the hypothalamus [2]: tendency to increase | Kb [3]: 5.37 nM | MAO-B activity, CTX (MAO-B): 1065 ± 48 pmol/min/mg Protein | MAO-A activity, CTX (MAO-A): 1536 ± 50 pmol/min/mg Protein | Ki [4]: 251 nM | HMNT activity, CTX [5]: 44.41 ± 1.06 pmol/min/mg Protein | HMNT activity, HTH [5]: 41.09 ± 0.80 pmol/min/mg Protein

SMILES: CCCN(C)CCCCCOC1CCN(CCc2cc3ccccc3o2)CC1 [1b, 5-{{1-[2-(1-Benzofuran-2-yl)ethyl]piperidin-4-yl}oxy}-N-methyl-N-propylpentan-1-amine]
Kb [3]: 55 nM | Kb (H1-receptor): > 100 µM

SMILES: CCCN(C)CCCCCOC1CCN(CCCc2cc3ccccc3o2)CC1 [1c, 5-{{1-[3-(1-Benzofuran-2-yl)propyl]piperidin-4-yl}oxy}-N-methyl-N-propylpentan-1-amine]
Kb [3]: 77.6 nM

SMILES: CCCN(C)CCCCCOC1CCN(CCc2ccccc2)CC1 [1e, N-Methyl-5-[(1-phenethylpiperidin-4-yl)oxy]-N-propylpentan-1-amine]
Kb [3]: 214 nM

SMILES: CCCN(C)CCCCCOC1CCN(CCCc2ccccc2)CC1 [1f, N-Methyl-5-{[1-(3-phenylpropyl)piperidin-4-yl]oxy}-N-propylpentan-1-amine]
Kb [3]: 30.9 nM | Kb (H1-receptor): > 100 µM

SMILES: O=C(c1ccc(OCCCc2cnc[nH]2)cc1)C1CC1 [Ciproxifan, reference compound]
amount of consumed food (food intake) (rats): statistically significant reduction | histamine levels in the cerebral cortex [2]: no changes | noradrenaline levels in the cerebral cortex [2]: enhanced | histamine concentration in the hypothalamus [2]: tendency to increase | MAO-B activity, CTX (MAO-B): 1049 ± 56 pmol/min/mg Protein | MAO-A activity, CTX (MAO-A): 1654 ± 31 pmol/min/mg Protein | HMNT activity, CTX [5]: 46.90 ± 3.59 pmol/min/mg Protein | HMNT activity, HTH [5]: 51.76 ± 5.67 pmol/min/mg Protein

SMILES: S=C(NC1CCCCC1)N1CCC(c2cnc[nH]2)CC1 [Thioperamide]
bioavailability / brain penetration [6]: lower bioavailability

SMILES: CNCCc1cnc[nH]1 [[^3H]-N^α-MH, [^3H]-N^α-methylhistamine, reference compound]
Kd ([1]; rH3R, HEK-293T membranes): 2.72 ± 0.34 nM | Kd ([4]; read-out: KD (saturation binding)): 0.9 ± 0.08 nM
